Experimental data as given in patent US7541021B2, “Process for preparation of a sterile suspension of corticosteroid particles for the administration by inhalation” (Chiesi Farmaceutici S.p.A., priority 2002, dated 2009).

What was measured:
[1] = test system: microsomes of human lung cells; assay: Formation of fatty acid esters of 17-BMP in lung microsomes; assay type: in vitro ADME
[2] = Elimination of 17-BMP after nebulisation of aqueous BDP suspensions versus pressurised aerosol suspensions; assay type: in vivo; settings: after aqueous suspensions of BDP by nebulisation, compared with suspension formulations as pressurised aerosols
Source text: It has also been observed that due to the formation of the monoester in the lung cells, the elimination half-life and the mean residence time of 17-BMP are longer after the administration of aqueous suspensions of BDP by nebulisation than formulations in suspension administered in the form of pressurised aerosols.

[3] = Apparent volumes and densities (European Pharmacopoeia 2.9.15) of micronised BDP powder; assay type: physicochemical; settings: for dv, apparent density before settling: 100 g in 250 ml cylinder; for ds, apparent density after packing: after compacting
Method: The apparent volumes and densities were measured according to the European Pharmacopoeia, 4th edition, paragraph 2.9.15. 100 g of the test substance is introduced into a dry 250 ml cylinder without compacting it. The unsettled apparent volume (Vo) is read off, then 10, 500 and 1250 taps are performed, and volumes (V10, V500 and V1250) are read. If the difference between V500 and V1250 is greater than 2 ml, 1250 further taps are performed (V2500).

[4] = Particle size of micronised BDP by Malvern apparatus; assay type: physicochemical; settings: micronised powder
Method: The dimensional characteristics of the particles were also evaluated by using a Malvern apparatus. This type of test exploits the diffraction of a laser beam by the particles to determine the size distribution of the particles in suspension. The parameter considered is the median volumetric diameter in μm of 10%, 50% and 90% of the particles, expressed as d(v,0.1), d(v,0.5) and d(v,0.9) respectively, which is determined by assuming that the particles have a geometrical shape equivalent to a sphere. Advantageously, in the suspension formulation of the invention, the d(v,0.9) after sonication is less than 8 μm and the d(v,0.5) is comprised between 2 and 3.5 μm.

Row | Formation of stable esters with long-chain fatty acids such as oleic acid [1] | elimination half-life [2] | mean residence time [2] | Cs, packing capacity (difference between V10 and V500) [3] [mL] | dv, apparent density before settling [3] [g/mL] | ds, apparent density after packing [3] [g/mL] | Particle size d (v, 0.1) [4] [μm] | Particle size d (v, 0.5) [4] [μm] | Particle size d (v, 0.9) [4] [μm] | SMILES
1 | are formed | longer | longer | – | – | – | – | – | – | CCC(=O)O[C@]1(C(=O)CO)[C@@H](C)C[C@H]2[C@@H]3CCC4=CC(=O)C=C[C@]4(C)[C@@]3(Cl)[C@@H](O)C[C@@]21C [17-BMP, beclomethasone-17-monopropionate]
2 | – | – | – | 12 | 0.32 | 0.42 | 0.48 | 1.81 | 5.73 | CCC(=O)OCC(=O)[C@@]1(OC(=O)CC)[C@@H](C)C[C@H]2[C@@H]3CCC4=CC(=O)C=C[C@]4(C)[C@@]3(Cl)[C@@H](O)C[C@@]21C [Irradiated BDP, beclomethasone dipropionate]
3 | – | – | – | 16 | 0.21 | 0.27 | 0.49 | 1.91 | 5.98 | CCC(=O)OCC(=O)[C@@]1(OC(=O)CC)[C@@H](C)C[C@H]2[C@@H]3CCC4=CC(=O)C=C[C@]4(C)[C@@]3(Cl)[C@@H](O)C[C@@]21C [Non-irradiated BDP, beclomethasone dipropionate]
